Data taken from the supplement of paper PMC11061612.

Key:
Experiment in all cases: Bliss excess, mean over the matrix (fraction); higher = more synergy
[1] = tested on: CAL-78 (Chondrosarcoma)
Outline: (§1)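 Cell lines in DMEM/F12 or RPMI with 10% FBS were plated in 1536-well plates, held 24 hours at 37°C, 5% CO2, then given two-drug dose matrices for 72 hours (DMSO typically 0.2%). Viability was read by CellTiter-Glo 2.0 luminescence and scaled as inhibition from 0 (vehicle wells) to 1 (blank wells). Combination Emax is the second-highest inhibition in the matrix; Bliss excess is observed combination effect minus expected EA + EB − EA·EB, EA and EB being single-agent effects.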

[2] = tested on: CFPAC-1 (Pancreatic Carcinoma)
Outline: as §1

[3] = tested on: COR-L23 (Non-Small Cell Lung Carcinoma)
Outline: as §1

[4] = tested on: COR-L95 (Small Cell Lung Carcinoma)
Outline: as §1

[5] = tested on: CTV-1 (T-Lymphoblastic Leukemia)
Outline: as §1

[6] = tested on: HCC2157 (Breast Carcinoma)
Outline: as §1

[7] = tested on: HT-29 (Colorectal Carcinoma)
Outline: as §1

[8] = tested on: IGR-1 (Melanoma)
Outline: as §1

[9] = tested on: J82 (Bladder Carcinoma)
Outline: as §1

[10] = tested on: KARPAS-620 (Plasma Cell Myeloma)
Outline: as §1

[11] = tested on: KATOIII (Gastric Carcinoma)
Outline: as §1

[12] = tested on: LU-99A (Non-Small Cell Lung Carcinoma)
Outline: as §1

[13] = tested on: MDA-MB-231 (Breast Carcinoma)
Outline: as §1

[14] = tested on: NCI-H1793 (Lung Adenocarcinoma)
Outline: as §1

[15] = tested on: SNU-C5 (Colorectal Carcinoma)
Outline: as §1

[16] = tested on: SW1088 (Low Grade Glioma)
Outline: as §1

[17] = tested on: SW1990 (Pancreatic Carcinoma)
Outline: as §1

[18] = tested on: SW756 (Cervical Carcinoma)
Outline: as §1

[19] = tested on: TGBC24TKB (Biliary Tract Carcinoma)
Outline: as §1

[20] = tested on: U-266 (Plasma Cell Myeloma)
Outline: as §1

Structure (SMILES): COc1cc2c(cc1OCCCCCOc1cc3c(cc1OC)C(=O)N1C=C(C)C[C@H]1C=N3)N=C[C@@H]1CC(C)=CN1C2=O [SG3199] + O=C(c1cc(Cc2n[nH]c(=O)c3ccccc23)ccc1F)N1CCN(C(=O)C2CC2)CC1 [Olaparib] (first compound max 0.001 µM, 7x7, partner max 10 µM)
- Bliss excess [1]: -0.0831
- Bliss excess [2]: -0.0329
- Bliss excess [3]: 0.0285
- Bliss excess [4]: -0.0224
- Bliss excess [5]: -0.013
- Bliss excess [6]: 0.0277
- Bliss excess [7]: -0.0261
- Bliss excess [8]: -0.0189
- Bliss excess [9]: 0.0123
- Bliss excess [10]: -0.0015
- Bliss excess [11]: -0.0365
- Bliss excess [12]: -0.0672
- Bliss excess [13]: -0.0808
- Bliss excess [14]: -0.0323
- Bliss excess [15]: -0.0362
- Bliss excess [16]: -0.0511
- Bliss excess [17]: -0.049
- Bliss excess [18]: 0.0091
- Bliss excess [19]: -0.0087
- Bliss excess [20]: -0.0601

Structure (SMILES): CCc1c2c(nc3ccc(O)cc13)-c1cc3c(c(=O)n1C2)COC(=O)[C@]3(O)CC [SN-38] + CN(C)CCCOc1ccc(-c2ccc3ncc4c(c3c2)n(C2CCOCC2)c(=O)n4C)cn1 [AZD0156] (first compound max 0.3 µM, 7x7, partner max 1 µM)
- Bliss excess [1]: -0.0547
- Bliss excess [2]: -0.0436
- Bliss excess [3]: 0.014
- Bliss excess [4]: -0.0989
- Bliss excess [5]: 0.0414
- Bliss excess [6]: 0.142
- Bliss excess [7]: 0.0693
- Bliss excess [8]: 0.0179
- Bliss excess [9]: -0.0299
- Bliss excess [10]: -0.0242
- Bliss excess [11]: -0.0305
- Bliss excess [12]: 0.0406
- Bliss excess [13]: 0.0937
- Bliss excess [14]: -0.026
- Bliss excess [15]: 0.036
- Bliss excess [16]: 0.0324
- Bliss excess [17]: -0.0091
- Bliss excess [18]: -0.0273
- Bliss excess [19]: 0.0476
- Bliss excess [20]: -0.0099

Structure (SMILES): C[C@@H](c1ccc2nccn2c1)n1nnc2ncc(-c3cnn(C)c3)nc21 [Savolitinib] + CC1(C)CCC(CN2CCN(c3ccc(C(=O)NS(=O)(=O)c4ccc(NCC5CCOCC5)c([N+](=O)[O-])c4)c(Oc4cnc5[nH]ccc5c4)c3)CC2)=C(c2ccc(Cl)cc2)C1 [Venetoclax] (first compound max 1 µM, 7x7, partner max 1 µM)
- Bliss excess [1]: -0.0872
- Bliss excess [2]: -0.0514
- Bliss excess [3]: -0.0457
- Bliss excess [4]: 0.0069
- Bliss excess [5]: -0.0245
- Bliss excess [6]: 0.0068
- Bliss excess [7]: -0.0358
- Bliss excess [8]: -0.0583
- Bliss excess [9]: -0.0895
- Bliss excess [10]: -0.0449
- Bliss excess [11]: -0.0364
- Bliss excess [12]: -0.0746
- Bliss excess [13]: -0.0599
- Bliss excess [14]: -0.0566
- Bliss excess [15]: -0.0596
- Bliss excess [16]: -0.0115
- Bliss excess [17]: -0.0219
- Bliss excess [18]: -0.0923
- Bliss excess [19]: -0.0283
- Bliss excess [20]: -0.0118

Structure (SMILES): C[C@@H](c1ccc2nccn2c1)n1nnc2ncc(-c3cnn(C)c3)nc21 [Savolitinib] + Cc1c2c(nn1C)CSCc1cc(n(C)n1)CSc1cc(c3ccccc3c1)OCCCc1c(C(=O)O)n(C)c3c-2c(Cl)ccc13 [AZD5991] (first compound max 1 µM, 7x7, partner max 1 µM)
- Bliss excess [1]: -0.117
- Bliss excess [2]: -0.0875
- Bliss excess [3]: -0.048
- Bliss excess [4]: -0.0171
- Bliss excess [5]: -0.0223
- Bliss excess [6]: -0.0289
- Bliss excess [7]: -0.0297
- Bliss excess [8]: -0.0112
- Bliss excess [9]: -0.0717
- Bliss excess [10]: -0.049
- Bliss excess [11]: -0.0149
- Bliss excess [12]: -0.0346
- Bliss excess [13]: -0.0186
- Bliss excess [14]: -0.0351
- Bliss excess [15]: -0.05
- Bliss excess [16]: 0.021
- Bliss excess [17]: -0.0306
- Bliss excess [18]: -0.0692
- Bliss excess [19]: -0.029
- Bliss excess [20]: -0.0655

Structure (SMILES): Cn1cnc2c(F)c(Nc3ccc(Br)cc3Cl)c(C(=O)NOCCO)cc21 [Selumetinib] + C=CCn1c(=O)c2cnc(Nc3ccc(N4CCN(C)CC4)cc3)nc2n1-c1cccc(C(C)(C)O)n1 [AZD1775] (first compound max 10 µM, partner max 1 µM)
- Bliss excess [1]: -0.07
- Bliss excess [2]: -0.0439
- Bliss excess [3]: 0.0308
- Bliss excess [4]: -0.0464
- Bliss excess [5]: 0.0039
- Bliss excess [6]: 0.0111
- Bliss excess [7]: -0.0432
- Bliss excess [8]: 0.0466
- Bliss excess [9]: -0.0614
- Bliss excess [10]: 0.0719
- Bliss excess [11]: 0.0186
- Bliss excess [12]: -0.0624
- Bliss excess [13]: -0.0337
- Bliss excess [14]: -0.0764
- Bliss excess [15]: 0.0241
- Bliss excess [16]: -0.0468
- Bliss excess [17]: 0.0134
- Bliss excess [18]: -0.0882
- Bliss excess [19]: -0.0027
- Bliss excess [20]: 0.0598

Structure (SMILES): Cn1cnc2c(F)c(Nc3ccc(Br)cc3Cl)c(C(=O)NOCCO)cc21 [Selumetinib] + CC(C)n1c(=O)n(C)c2cnc3cc(F)c(-c4ccc(OCCCN5CCCCC5)nc4)cc3c21 [AZD1390] (first compound max 10 µM, 7x7, partner max 0.3 µM)
- Bliss excess [1]: -0.0665
- Bliss excess [2]: -0.0627
- Bliss excess [3]: -0.0251
- Bliss excess [4]: -0.016
- Bliss excess [5]: 0.0032
- Bliss excess [6]: 0.002
- Bliss excess [7]: -0.0043
- Bliss excess [8]: -0.0297
- Bliss excess [9]: 0.0142
- Bliss excess [10]: 0.0201
- Bliss excess [11]: 0.011
- Bliss excess [12]: -0.0058
- Bliss excess [13]: 0.0101
- Bliss excess [14]: -0.0503
- Bliss excess [15]: -0.0283
- Bliss excess [16]: -0.0368
- Bliss excess [17]: -0.0434
- Bliss excess [18]: -0.019
- Bliss excess [19]: -0.109
- Bliss excess [20]: -0.0413

Structure (SMILES): Cn1cnc2c(F)c(Nc3ccc(Br)cc3Cl)c(C(=O)NOCCO)cc21 [Selumetinib] + CCN(CCO)CCCOc1ccc2c(Nc3cc(CC(=O)Nc4cccc(F)c4)[nH]n3)ncnc2c1 [AZD2811] (first compound max 10 µM, 7x7, partner max 1 µM)
- Bliss excess [1]: -0.0522
- Bliss excess [2]: -0.0529
- Bliss excess [3]: 0.0428
- Bliss excess [4]: -0.0075
- Bliss excess [5]: 0.0436
- Bliss excess [6]: 0.0194
- Bliss excess [7]: -0.0042
- Bliss excess [8]: -0.007
- Bliss excess [9]: -0.0611
- Bliss excess [10]: 0.193
- Bliss excess [11]: -0.0148
- Bliss excess [12]: -0.0383
- Bliss excess [13]: 0.0107
- Bliss excess [14]: -0.0302
- Bliss excess [15]: 0.038
- Bliss excess [16]: -0.0456
- Bliss excess [17]: -0.0292
- Bliss excess [18]: -0.008
- Bliss excess [19]: 0.003
- Bliss excess [20]: 0.0128
